# From patent US20100298141A1, “SUBSTITUTED PYRIDINE N-OXIDE HERBICIDES” (E. I. DU PONT DE NEMOURS AND COMPANY, priority 2007, published 2010)
# Columns and labels:
# morningglory [1] = experiment: Test A pre-/postemergence greenhouse test; type: in vivo, Ipomoea spp.; details: for Morningglory plant response rating: 0 to 100 scale; for Plant response rating, Morningglory: 0 to 100 scale where 0 is no effect and 100 is complete control
# Procedure, shortened: (§1)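 Visual injury ratings, made relative to untreated controls roughly ten days after treatment, cover both preemergence and postemergence application. Compounds in a surfactant-containing non-phytotoxic solvent were sprayed onto the soil surface after sowing and, simultaneously, onto young plants at the one- to two-leaf stage.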
# cocklebur = experiment: Test C pre-/postemergence test; type: in vivo, Xanthium strumarium; details: for Plant response rating, Cocklebur: 31 g ai/ha, scale 0 to 100 (0 no effect, 100 complete control); for Plant response rating (0 to 100), Cocklebur: 250 g ai/ha
# Procedure, shortened: (§2)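 Seeds were planted and treated preemergence with test chemical in a non-phytotoxic solvent mixture containing surfactant. Postemergence applications of the same formulation went onto plants 2 to 18 cm tall (1- to 4-leaf stage). A dash marks no test result.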
# johnsongrass = experiment: Test C pre-/postemergence test; type: in vivo, Sorghum halepense; details: Preemergence; for Johnsongrass plant response rating: 62 g ai/ha, scale 0 to 100; for Plant response rating (0 to 100), Johnsongrass: 250 g ai/ha
# Procedure, shortened: as §2
# umbrella sedge = experiment: Test C flooded paddy test; type: in vivo, Cyperus difformis; details: Flood
# Procedure, shortened: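 In-water treatment: compound dosed into 3 cm flood over soil, water level unchanged throughout. Controls run alongside; visual assessment at day 13–15.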
# common ragweed = experiment: Test C pre-/postemergence test; type: in vivo, Ambrosia elation; details: Preemergence; for Ragweed plant response rating: 62 g ai/ha, scale 0 to 100; for Plant response rating, Ragweed: 31 g ai/ha, scale 0 to 100 (0 no effect, 100 complete control)
# Procedure, shortened: as §2
# giant foxtail [2] = experiment: Test C pre-/postemergence test; type: in vivo, Setaria faberii; details: Preemergence; for Foxtail, Giant plant response rating: 62 g ai/ha, scale 0 to 100; for Plant response rating, Foxtail, Giant: 31 g ai/ha, scale 0 to 100 (0 no effect, 100 complete control); for Plant response rating (0 to 100), Foxtail, Giant: 250 g ai/ha
# Procedure, shortened: as §2
# downy brome = experiment: Test C pre-/postemergence test; type: in vivo, Bromus tectorum; details: for Plant response rating, Bromegrass, Downy: 31 g ai/ha, scale 0 to 100 (0 no effect, 100 complete control); for Plant response rating (0 to 100), Bromegrass, Downy: 250 g ai/ha
# Procedure, shortened: as §2
# lambsquarters = experiment: Test C pre-/postemergence test; type: in vivo, Chenopodium album; details: Preemergence; for Lambsquarters plant response rating: 62 g ai/ha, scale 0 to 100; for Plant response rating, Lambsquarters: 31 g ai/ha, scale 0 to 100 (0 no effect, 100 complete control)
# Procedure, shortened: as §2
# woolly cupgrass = experiment: Test C pre-/postemergence test; type: in vivo, Eriochloa villosa; details: Preemergence; for Cupgrass, Woolly plant response rating: 62 g ai/ha, scale 0 to 100; for Plant response rating, Cupgrass, Woolly: 31 g ai/ha, scale 0 to 100 (0 no effect, 100 complete control)
# Procedure, shortened: as §2
# yellow nutsedge = experiment: Test C pre-/postemergence test; type: in vivo, Cyperus esculentus; details: Preemergence; for Nutsedge, Yellow plant response rating: 62 g ai/ha, scale 0 to 100; for Plant response rating, Nutsedge, Yellow: 31 g ai/ha, scale 0 to 100 (0 no effect, 100 complete control)
# Procedure, shortened: as §2
# giant foxtail [3] = experiment: Test A pre-/postemergence greenhouse test; type: in vivo, Setaria faberi; details: for Foxtail, Giant plant response rating: 0 to 100 scale; for Plant response rating, Foxtail, Giant: 0 to 100 scale where 0 is no effect and 100 is complete control
# Procedure, shortened: as §1
# wheat = experiment: Test A pre-/postemergence greenhouse test; type: in vivo, Triticum aestivum; details: for Wheat plant response rating: 0 to 100 scale; for Plant response rating, Wheat: 0 to 100 scale where 0 is no effect and 100 is complete control
# Procedure, shortened: as §1
# morningglory [4] = experiment: Test C pre-/postemergence test; type: in vivo, Ipomoea coccinea; details: Preemergence; for Morningglory plant response rating: 62 g ai/ha, scale 0 to 100
# Procedure, shortened: as §2
# Goosegrass = experiment: Test C pre-/postemergence test; type: in vivo, Eleusin indica; details: Preemergence; for Goosegrass plant response rating: 62 g ai/ha, scale 0 to 100; for Plant response rating, Goosegrass: 31 g ai/ha, scale 0 to 100 (0 no effect, 100 complete control); for Plant response rating (0 to 100), Goosegrass: 250 g ai/ha
# Procedure, shortened: as §2
# crabgrass = experiment: Test A pre-/postemergence greenhouse test; type: in vivo, Digitaria sanguinalis; details: for Crabgrass, Large plant response rating: 0 to 100 scale; for Plant response rating, Crabgrass, Large: 0 to 100 scale where 0 is no effect and 100 is complete control
# Procedure, shortened: as §1
# corn = experiment: Test C pre-/postemergence test; type: in vivo, Zea mays; details: for Plant response rating, Corn: 31 g ai/ha, scale 0 to 100 (0 no effect, 100 complete control); for Plant response rating (0 to 100), Corn: 250 g ai/ha
# Procedure, shortened: as §2
# soybean = experiment: Test C pre-/postemergence test; type: in vivo, Glycine max; details: Preemergence; for Soybean plant response rating: 62 g ai/ha, scale 0 to 100; for Plant response rating, Soybean: 31 g ai/ha, scale 0 to 100 (0 no effect, 100 complete control)
# Procedure, shortened: as §2
# [5] = Postemergence, 125 g ai/ha, 0 is no effect, 100 is complete control
# [6] = Postemergence, 500 g ai/ha, 0 is no effect, 100 is complete control
# [7] = Preemergence, 125 g ai/ha, 0 no effect, 100 complete control
# [8] = 62 g ai/ha, Preemergence, scale 0 to 100
# [9] = preemergence, 125 g ai/ha, scale 0 (no effect) to 100 (complete control)
# [10] = 31 g ai/ha, scale 0 to 100 (0 no effect, 100 complete control)
# [11] = 62 g ai/ha, scale 0 to 100, 0 no effect, 100 complete control, 13 to 15 days
# [12] = 125 g ai/ha, scale 0 to 100, 0 no effect, 100 complete control, 13 to 15 days
# [13] = 250 g ai/ha, scale 0 to 100, 0 no effect, 100 complete control, 13 to 15 days
smiles,measurement,setting,value
Cc1cc[n+]([O-])c(S(=O)(=O)C(Cl)c2c(C(F)(F)F)nn(C)c2Cl)c1 (racemic) [Compound 22],Morningglory plant response rating,morningglory [1]; [5],20
same,Morningglory plant response rating,morningglory [1]; [6],40
same,Morningglory plant response rating,morningglory [1]; [7],70
same,"Plant response rating, Morningglory","morningglory [1]; Preemergence, 500 g ai/ha",90
same,Cocklebur plant response rating,cocklebur; [8],0
same,"Plant response rating, Cocklebur",cocklebur; Preemergence,0
same,"Plant response rating (0 to 100), Cocklebur",cocklebur; Preemergence,0
same,Cocklebur plant response rating,cocklebur; [9],0
same,Johnsongrass plant response rating,johnsongrass,10
same,"Plant response rating (0 to 100), Johnsongrass",johnsongrass,70
same,"Plant response rating, Sedge, Umbrella",umbrella sedge; [10],60
same,"Plant response rating, Sedge, Umbrella",umbrella sedge; [11],85
same,"Plant response rating, Sedge, Umbrella",umbrella sedge; [12],95
same,"Plant response rating, Sedge, Umbrella",umbrella sedge; [13],95
same,Ragweed plant response rating,common ragweed,80
same,"Plant response rating, Ragweed",common ragweed,0
same,"Foxtail, Giant plant response rating",giant foxtail [2],80
same,"Plant response rating, Foxtail, Giant",giant foxtail [2],80
same,"Plant response rating (0 to 100), Foxtail, Giant",giant foxtail [2],100
same,"Bromegrass, Downy plant response rating",downy brome; [8],0
same,"Plant response rating, Bromegrass, Downy",downy brome; Preemergence,0
same,"Plant response rating (0 to 100), Bromegrass, Downy",downy brome; Preemergence,0
same,"Bromegrass, Downy plant response rating",downy brome; [9],0
same,Lambsquarters plant response rating,lambsquarters,100
same,"Plant response rating, Lambsquarters",lambsquarters,0
same,"Cupgrass, Woolly plant response rating",woolly cupgrass,100
same,"Plant response rating, Cupgrass, Woolly",woolly cupgrass,60
same,"Nutsedge, Yellow plant response rating",yellow nutsedge,60
same,"Plant response rating, Nutsedge, Yellow",yellow nutsedge,50
same,"Foxtail, Giant plant response rating",giant foxtail [3]; [5],50
same,"Foxtail, Giant plant response rating",giant foxtail [3]; [6],80
same,"Foxtail, Giant plant response rating",giant foxtail [3]; [7],100
same,"Plant response rating, Foxtail, Giant","giant foxtail [3]; Preemergence, 500 g ai/ha",100
same,Wheat plant response rating,wheat; [5],0
same,Wheat plant response rating,wheat; [6],40
same,Wheat plant response rating,wheat; [7],20
same,"Plant response rating, Wheat","wheat; Preemergence, 500 g ai/ha",50
same,Morningglory plant response rating,morningglory [4],0
same,"Plant response rating, Morningglory",morningglory [4]; [10],0
same,Goosegrass plant response rating,Goosegrass,100
same,"Plant response rating, Goosegrass",Goosegrass,100
same,"Plant response rating (0 to 100), Goosegrass",Goosegrass,100
same,"Crabgrass, Large plant response rating",crabgrass; [5],40
same,"Crabgrass, Large plant response rating",crabgrass; [6],80
same,"Crabgrass, Large plant response rating",crabgrass; [7],90
same,"Plant response rating, Crabgrass, Large","crabgrass; Preemergence, 500 g ai/ha",90
same,Corn plant response rating,corn; [8],20
same,"Plant response rating, Corn",corn; Preemergence,0
same,"Plant response rating (0 to 100), Corn",corn; Preemergence,100
same,Corn plant response rating,corn; [9],30
same,Soybean plant response rating,soybean,0
same,"Plant response rating, Soybean",soybean,0
CC(c1c(C(F)(F)F)nn(C)c1OC(F)F)S(=O)(=O)c1cc(C(C)(C)C)cc[n+]1[O-] (racemic) [Compound 26],Morningglory plant response rating,morningglory [1]; [5],20
same,Morningglory plant response rating,morningglory [1]; [6],30
same,Morningglory plant response rating,morningglory [1]; [7],30
same,"Plant response rating, Morningglory","morningglory [1]; Preemergence, 500 g ai/ha",100
same,Cocklebur plant response rating,cocklebur; [8],0
same,"Plant response rating, Cocklebur",cocklebur; Preemergence,0
same,"Plant response rating (0 to 100), Cocklebur",cocklebur; Preemergence,50
same,Cocklebur plant response rating,cocklebur; [9],0
same,Johnsongrass plant response rating,johnsongrass,85
same,"Plant response rating (0 to 100), Johnsongrass",johnsongrass,100
same,"Plant response rating, Sedge, Umbrella",umbrella sedge; [10],70
same,"Plant response rating, Sedge, Umbrella",umbrella sedge; [11],80
same,"Plant response rating, Sedge, Umbrella",umbrella sedge; [12],95
same,"Plant response rating, Sedge, Umbrella",umbrella sedge; [13],95
same,Ragweed plant response rating,common ragweed,20
same,"Plant response rating, Ragweed",common ragweed,0
same,"Foxtail, Giant plant response rating",giant foxtail [2],70
same,"Plant response rating, Foxtail, Giant",giant foxtail [2],40
same,"Plant response rating (0 to 100), Foxtail, Giant",giant foxtail [2],75
same,"Bromegrass, Downy plant response rating",downy brome; [8],45
same,"Plant response rating, Bromegrass, Downy",downy brome; Preemergence,0
same,"Plant response rating (0 to 100), Bromegrass, Downy",downy brome; Preemergence,60
same,"Bromegrass, Downy plant response rating",downy brome; [9],45
same,Lambsquarters plant response rating,lambsquarters,40
same,"Plant response rating, Lambsquarters",lambsquarters,0
same,"Cupgrass, Woolly plant response rating",woolly cupgrass,40
same,"Plant response rating, Cupgrass, Woolly",woolly cupgrass,40
same,"Plant response rating (0 to 100), Cupgrass, Woolly",woolly cupgrass; 250 g ai/ha,98
same,"Nutsedge, Yellow plant response rating",yellow nutsedge,50
same,"Plant response rating, Nutsedge, Yellow",yellow nutsedge,0
same,"Foxtail, Giant plant response rating",giant foxtail [3]; [5],0
same,"Foxtail, Giant plant response rating",giant foxtail [3]; [6],30
same,"Foxtail, Giant plant response rating",giant foxtail [3]; [7],90
same,"Plant response rating, Foxtail, Giant","giant foxtail [3]; Preemergence, 500 g ai/ha",100
same,Wheat plant response rating,wheat; [5],10
same,Wheat plant response rating,wheat; [6],40
same,Wheat plant response rating,wheat; [7],20
same,"Plant response rating, Wheat","wheat; Preemergence, 500 g ai/ha",70
same,Morningglory plant response rating,morningglory [4],80
same,Goosegrass plant response rating,Goosegrass,98
same,"Plant response rating, Goosegrass",Goosegrass,90
same,"Plant response rating (0 to 100), Goosegrass",Goosegrass,100
same,"Crabgrass, Large plant response rating",crabgrass; [5],20
same,"Crabgrass, Large plant response rating",crabgrass; [6],40
same,"Crabgrass, Large plant response rating",crabgrass; [7],90
same,"Plant response rating, Crabgrass, Large","crabgrass; Preemergence, 500 g ai/ha",100
same,Corn plant response rating,corn; [8],0
same,"Plant response rating, Corn",corn; Preemergence,0
same,"Plant response rating (0 to 100), Corn",corn; Preemergence,95
same,Corn plant response rating,corn; [9],70
same,Soybean plant response rating,soybean,0
same,"Plant response rating, Soybean",soybean,0
